Test results: patent US9688624B2, “DP2 antagonist and uses thereof” (Brickell Biotech, Inc., priority 2010, dated 2017)

Key:
CYP2C19 = CYP2C19 (Homo sapiens (Human), UniProt P33261); assay: Extracellular cytochrome P450 inhibition (microsomes); conditions: 2C19, mephenytoin 4′-hydroxylation
[1] = Metabolites of Compound 1 (active metabolites)
Experimental: Compound 1 metabolites formed during incubation of Compound 1 with rat, dog, and human liver microsomes, rat and human hepatocytes, as well as those generated in vivo and isolated from rat bile and rat and dog plasma have been investigated. Authentic standards of the majority of the metabolites have been chemically synthesized. The identity of the in vitro and in vivo metabolites were confirmed by comparison with the authentic standard and/or by the fragmentation pattern observed following LC-MS/MS analysis.

Sequence of CYP2C19 (P33261 whole entry): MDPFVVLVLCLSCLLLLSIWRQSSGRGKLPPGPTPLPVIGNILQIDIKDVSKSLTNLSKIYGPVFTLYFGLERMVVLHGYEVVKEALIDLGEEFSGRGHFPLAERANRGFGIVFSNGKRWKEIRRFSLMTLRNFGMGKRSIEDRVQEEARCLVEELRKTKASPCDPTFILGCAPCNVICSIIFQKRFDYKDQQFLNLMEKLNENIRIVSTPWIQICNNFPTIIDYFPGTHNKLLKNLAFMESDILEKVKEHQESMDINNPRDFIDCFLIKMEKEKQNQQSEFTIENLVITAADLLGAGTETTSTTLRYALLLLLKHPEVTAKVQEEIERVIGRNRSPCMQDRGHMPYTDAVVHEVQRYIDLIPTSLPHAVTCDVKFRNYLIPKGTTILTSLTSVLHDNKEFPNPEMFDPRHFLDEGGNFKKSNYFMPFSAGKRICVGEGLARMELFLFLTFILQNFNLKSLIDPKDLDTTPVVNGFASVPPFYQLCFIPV

SMILES: CCC1(c2ccccc2)C(=O)NC(=O)N(Cc2ccccc2)C1=O (single isomer, unassigned; (-)) [(-)-N-3-benzyl-phenobarbital, reference compound]
- IC50 (CYP2C19): 8.7 µM

SMILES: COc1ccc(CC(=O)O)cc1Oc1ccc(NC(=O)C(C)(C)C)cc1C[S+]([O-])C(C)(C)C (centres unmarked) [Compound M1, 2-(3-(2-(tert-butylsulfinylmethyl)-4-pivalamidophenoxy)-4-methoxyphenyl)acetic acid]
- activity of metabolite [1]: active

SMILES: COc1ccc(CC(=O)O)cc1Oc1ccc(NC(=O)C(C)(C)C)cc1CS(=O)(=O)C(C)(C)C [Compound M2, 2-(3-(2-(tert-butylsulfonylmethyl)-4-pivalamidophenoxy)-4-methoxyphenyl)acetic acid]
- activity of metabolite [1]: active

SMILES: CC(C)(C)SCc1cc(NC(=O)C(C)(C)C)ccc1Oc1cc(CC(=O)O)ccc1O [Compound M3, 2-(3-(2-(tert-butylthiomethyl)-4-pivalamidophenoxy)-4-hydroxyphenyl)acetic acid]
- activity of metabolite [1]: active

SMILES: CC(C)(C)C(=O)Nc1ccc(Oc2cc(CC(=O)O)ccc2O)c(C[S+]([O-])C(C)(C)C)c1 (centres unmarked) [Compound M5, 2-(3-(2-(tert-butylsulfinylmethyl)-4-pivalamidophenoxy)-4-hydroxyphenyl)acetic acid]
- activity of metabolite [1]: active
